Data published in patent US20230312529A1, “PYRIMIDINE SMALL-MOLECULE COMPOUND AND APPLICATION THEREOF” (WENZHOU MEDICAL UNIVERSITY, priority 2021, published 2023).
Values joined by “and” are separate entries in the source; they are usually repeats but may differ in a detail not shown here. Equal values may be shown once.

Assays:
ABL1 = ABL1 (Homo sapiens (Human), UniProt P00519); test: Caliper Mobility Shift kinase inhibition test; format: biochemical; conditions: 100 nM; for inhibition at 0.1 µM: read-out: inhibitory rate on ABL1
Experimental: (§1) The method adopted in the test was Caliper Mobility Shift Assay, which was a detection platform based on the mobility detection technology of microfluidic chip technology. […] Collected data was tested on Caliper to yield that inhibition ratio to kinase activity=(max−conversion)/(max−min)×100. “max” was DMSO control without adding compound, and “min” was low control. When IC50 was determined, each sample was provided with 10 dilutions, each with 2 multiple holes, and repeated for 3 times.

FGFR2 = FGFR2 (Homo sapiens (Human), UniProt P21802); test: Caliper Mobility Shift kinase inhibition test; format: biochemical
Experimental: (§2) The method adopted in the test was Caliper Mobility Shift Assay, which was a detection platform based on the mobility detection technology of microfluidic chip technology. Test steps: 1.25× kinase reaction buffer (62.5 mmol/L HEPES, pH 7.5; 0.001875% Brij-35; 12.5 mmol/L MgCl2; 2.5 mM DTT) and kinase reaction stop solution (100 mmol/L HEPES, pH 7.5; 0.015% Brij-35; 0.2% Coating Reagent #3) were configured. […] Collected data was tested on Caliper to yield that inhibition ratio to kinase activity=(max−conversion)/(max−min)×100. “max” was DMSO control without adding compound, and “min” was low control. When IC50 was determined, each sample was provided with 10 dilutions, each with 2 multiple holes, and repeated for 3 times.
(§3) According to the above-mentioned method for measuring kinase inhibitory activity, the inhibitory activity of the active compounds on other multiple kinases was measured to characterize the kinase selectivity of active inhibitors.

JAK1 = JAK1 (Homo sapiens (Human), UniProt P23458); test: Caliper Mobility Shift kinase inhibition test; format: biochemical
Experimental: as §2, §3

PDGFRβ = PDGFRβ (Homo sapiens (Human), UniProt P09619); test: Caliper Mobility Shift kinase inhibition test; format: biochemical; conditions: for inhibition at 0.1 µM / inhibitory rate on PDGFR-β: 100 nM; for inhibition at 0.1 µM: read-out: inhibitory rate on PDGFR-β; for IC50: read-out: IC50 PDGFR-β
Experimental: as §2, §3

ALK = ALK (Homo sapiens (Human), UniProt Q9UM73); test: Caliper Mobility Shift kinase inhibition test; format: biochemical
Experimental: as §2

FLT3 = FLT3 (Homo sapiens (Human), UniProt P36888); test: Caliper Mobility Shift kinase inhibition test; format: biochemical; conditions: 100 nM; for inhibition at 0.1 µM: read-out: inhibitory rate on FLT3
Experimental: as §2

IKK β = IKK β (Homo sapiens (Human), UniProt O14920); test: Caliper Mobility Shift kinase inhibition test; format: biochemical
Experimental: as §2

[1] = system: human normal retinal cells ARPE-19; test: MTT assay on human retinal cells; format: cell-based; conditions: Homo sapiens, ARPE-19; MTT; read-out: Inhibitory activity (IC50) ARPE-19
[2] = system: human brain microvascular endothelial cells (HCMEC/D3); test: MTT assay on human neovascular cells; format: cell-based; conditions: Homo sapiens, hCMEC/D3; MTT; read-out: Inhibitory activity (IC50) HCMEC-D3
[3] = system: human cerebrovascular pericytes (HBVP); test: MTT assay on human neovascular cells; format: cell-based; conditions: Homo sapiens; MTT; read-out: Inhibitory activity (IC50) HBVP
MG-63 osteosarcoma cells = test: MTT assay on osteosarcoma cells; format: cell-based; conditions: Homo sapiens, 48 hours, read-out: Inhibitory activity (IC50) MG-63
Experimental: (§4) Logarithmic osteosarcoma cells were inoculated into a 96-well plate with a cell concentration of 1,500 cell/well for 6 hours by using MTT assay, and each well was filled with 200 μL of cell suspension. […] The samples were cultured in an incubator for 48 hours (37° C., 5% CO2), and 20 v L of MTT (3-(4,5-dimethylthiazole-2)-2,5-diphenyltetrazole) were added into each hole. After continuous culture for 4 hours, the culture solution was discarded by suction, and 200 v L of DMSO were added to each well. […] Calculation method of IC50 value: the IC50 values of the samples were calculated by curve fitting with GraphPad Prism software.

[4] = system: MNNG/HOS osteosarcoma cells; test: MTT assay on osteosarcoma cells; format: cell-based; conditions: 48 hours, read-out: Inhibitory activity (IC50) MNNG/HOS
Experimental: as §4

[5] = system: SAOS-2 osteosarcoma cells; test: MTT assay on osteosarcoma cells; format: cell-based; conditions: Homo sapiens, 48 hours, read-out: Inhibitory activity (IC50) SAOS-2
Experimental: as §4

U2OS osteosarcoma cells = test: MTT assay on osteosarcoma cells; format: cell-based; conditions: Homo sapiens, 48 hours, read-out: Inhibitory activity (IC50) U2OS
Experimental: as §4

PDGFRα = PDGFRα (Homo sapiens (Human), UniProt P16234); test: Caliper Mobility Shift kinase inhibition test; format: biochemical; conditions: read-out: inhibitory rate on PDGFR-α, 100 nM
Experimental: as §1

Sequence of IKK β (O14920 whole entry, species assumed): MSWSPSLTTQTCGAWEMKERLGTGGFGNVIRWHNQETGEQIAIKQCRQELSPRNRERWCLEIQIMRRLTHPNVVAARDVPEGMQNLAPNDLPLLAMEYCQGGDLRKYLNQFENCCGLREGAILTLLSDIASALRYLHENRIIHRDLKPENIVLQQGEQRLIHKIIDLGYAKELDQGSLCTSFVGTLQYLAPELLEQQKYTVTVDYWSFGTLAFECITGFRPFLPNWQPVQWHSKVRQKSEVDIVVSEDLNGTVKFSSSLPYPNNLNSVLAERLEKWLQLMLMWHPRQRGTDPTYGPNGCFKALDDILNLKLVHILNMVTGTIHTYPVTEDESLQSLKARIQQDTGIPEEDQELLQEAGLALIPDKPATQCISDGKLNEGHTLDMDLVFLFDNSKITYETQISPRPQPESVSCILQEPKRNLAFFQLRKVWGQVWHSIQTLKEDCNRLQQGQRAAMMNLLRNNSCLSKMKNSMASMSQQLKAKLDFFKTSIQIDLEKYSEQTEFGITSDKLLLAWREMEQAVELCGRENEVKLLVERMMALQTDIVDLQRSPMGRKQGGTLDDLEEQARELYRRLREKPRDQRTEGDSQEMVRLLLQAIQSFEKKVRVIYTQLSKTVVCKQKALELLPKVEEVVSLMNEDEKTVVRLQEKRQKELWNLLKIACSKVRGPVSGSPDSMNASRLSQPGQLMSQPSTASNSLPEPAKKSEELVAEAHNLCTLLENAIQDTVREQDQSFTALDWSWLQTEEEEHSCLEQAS
Sequence of JAK1 (P23458 whole entry, species assumed): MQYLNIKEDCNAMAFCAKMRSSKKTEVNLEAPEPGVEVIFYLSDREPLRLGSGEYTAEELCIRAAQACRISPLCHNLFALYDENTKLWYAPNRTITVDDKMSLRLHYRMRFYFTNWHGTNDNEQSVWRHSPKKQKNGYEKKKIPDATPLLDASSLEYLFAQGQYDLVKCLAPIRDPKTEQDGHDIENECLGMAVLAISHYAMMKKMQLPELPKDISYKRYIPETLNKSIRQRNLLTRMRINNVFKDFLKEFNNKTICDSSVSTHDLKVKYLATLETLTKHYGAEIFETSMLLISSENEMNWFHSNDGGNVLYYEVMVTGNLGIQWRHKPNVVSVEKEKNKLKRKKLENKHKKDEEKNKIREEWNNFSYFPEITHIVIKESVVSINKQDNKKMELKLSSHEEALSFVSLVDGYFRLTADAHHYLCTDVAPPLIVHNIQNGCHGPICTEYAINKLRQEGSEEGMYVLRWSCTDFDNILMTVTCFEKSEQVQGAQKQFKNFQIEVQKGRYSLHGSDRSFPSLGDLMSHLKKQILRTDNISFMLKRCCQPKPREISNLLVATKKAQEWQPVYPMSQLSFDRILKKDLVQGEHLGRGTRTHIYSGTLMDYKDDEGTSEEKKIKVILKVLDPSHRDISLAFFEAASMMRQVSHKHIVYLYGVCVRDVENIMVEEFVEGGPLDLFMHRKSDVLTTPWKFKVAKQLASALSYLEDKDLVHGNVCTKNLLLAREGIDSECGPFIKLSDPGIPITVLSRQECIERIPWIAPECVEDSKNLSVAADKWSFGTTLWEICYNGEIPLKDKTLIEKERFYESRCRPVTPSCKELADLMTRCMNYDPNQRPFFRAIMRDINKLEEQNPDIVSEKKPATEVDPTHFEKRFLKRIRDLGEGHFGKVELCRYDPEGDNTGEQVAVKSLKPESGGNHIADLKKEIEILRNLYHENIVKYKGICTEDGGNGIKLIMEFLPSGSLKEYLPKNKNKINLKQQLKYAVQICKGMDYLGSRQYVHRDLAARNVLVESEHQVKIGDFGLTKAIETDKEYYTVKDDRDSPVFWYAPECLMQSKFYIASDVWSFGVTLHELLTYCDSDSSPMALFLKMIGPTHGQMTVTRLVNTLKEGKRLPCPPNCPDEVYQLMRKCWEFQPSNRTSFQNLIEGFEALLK
Sequence of PDGFRβ (P09619 33-1106): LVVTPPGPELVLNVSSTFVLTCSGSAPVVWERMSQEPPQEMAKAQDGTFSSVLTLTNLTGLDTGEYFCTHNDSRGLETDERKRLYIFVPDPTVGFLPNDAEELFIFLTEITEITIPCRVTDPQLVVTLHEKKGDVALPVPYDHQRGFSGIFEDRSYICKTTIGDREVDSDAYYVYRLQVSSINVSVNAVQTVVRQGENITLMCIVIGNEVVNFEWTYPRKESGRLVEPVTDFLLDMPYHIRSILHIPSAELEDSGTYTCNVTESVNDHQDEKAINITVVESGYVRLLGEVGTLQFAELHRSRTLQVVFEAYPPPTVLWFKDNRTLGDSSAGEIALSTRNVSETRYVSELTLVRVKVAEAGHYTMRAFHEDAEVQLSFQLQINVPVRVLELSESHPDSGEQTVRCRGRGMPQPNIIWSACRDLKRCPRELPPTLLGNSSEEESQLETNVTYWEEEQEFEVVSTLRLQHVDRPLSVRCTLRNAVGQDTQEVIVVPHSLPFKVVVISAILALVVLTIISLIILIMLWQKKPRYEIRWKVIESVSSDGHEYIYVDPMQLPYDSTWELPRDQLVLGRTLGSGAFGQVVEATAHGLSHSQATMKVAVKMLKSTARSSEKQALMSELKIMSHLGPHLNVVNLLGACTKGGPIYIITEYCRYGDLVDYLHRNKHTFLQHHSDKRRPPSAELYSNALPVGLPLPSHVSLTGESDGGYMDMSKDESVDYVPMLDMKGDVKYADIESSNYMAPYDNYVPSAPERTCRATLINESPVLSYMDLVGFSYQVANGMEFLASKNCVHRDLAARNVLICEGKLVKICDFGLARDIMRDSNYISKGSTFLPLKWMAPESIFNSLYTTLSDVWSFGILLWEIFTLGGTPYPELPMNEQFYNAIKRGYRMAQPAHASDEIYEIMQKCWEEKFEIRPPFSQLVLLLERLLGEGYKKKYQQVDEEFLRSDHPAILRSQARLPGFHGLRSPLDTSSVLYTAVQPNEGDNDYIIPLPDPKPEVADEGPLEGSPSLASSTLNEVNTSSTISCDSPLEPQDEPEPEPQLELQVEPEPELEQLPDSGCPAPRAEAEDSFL
Sequence of FLT3 (P36888 27-993): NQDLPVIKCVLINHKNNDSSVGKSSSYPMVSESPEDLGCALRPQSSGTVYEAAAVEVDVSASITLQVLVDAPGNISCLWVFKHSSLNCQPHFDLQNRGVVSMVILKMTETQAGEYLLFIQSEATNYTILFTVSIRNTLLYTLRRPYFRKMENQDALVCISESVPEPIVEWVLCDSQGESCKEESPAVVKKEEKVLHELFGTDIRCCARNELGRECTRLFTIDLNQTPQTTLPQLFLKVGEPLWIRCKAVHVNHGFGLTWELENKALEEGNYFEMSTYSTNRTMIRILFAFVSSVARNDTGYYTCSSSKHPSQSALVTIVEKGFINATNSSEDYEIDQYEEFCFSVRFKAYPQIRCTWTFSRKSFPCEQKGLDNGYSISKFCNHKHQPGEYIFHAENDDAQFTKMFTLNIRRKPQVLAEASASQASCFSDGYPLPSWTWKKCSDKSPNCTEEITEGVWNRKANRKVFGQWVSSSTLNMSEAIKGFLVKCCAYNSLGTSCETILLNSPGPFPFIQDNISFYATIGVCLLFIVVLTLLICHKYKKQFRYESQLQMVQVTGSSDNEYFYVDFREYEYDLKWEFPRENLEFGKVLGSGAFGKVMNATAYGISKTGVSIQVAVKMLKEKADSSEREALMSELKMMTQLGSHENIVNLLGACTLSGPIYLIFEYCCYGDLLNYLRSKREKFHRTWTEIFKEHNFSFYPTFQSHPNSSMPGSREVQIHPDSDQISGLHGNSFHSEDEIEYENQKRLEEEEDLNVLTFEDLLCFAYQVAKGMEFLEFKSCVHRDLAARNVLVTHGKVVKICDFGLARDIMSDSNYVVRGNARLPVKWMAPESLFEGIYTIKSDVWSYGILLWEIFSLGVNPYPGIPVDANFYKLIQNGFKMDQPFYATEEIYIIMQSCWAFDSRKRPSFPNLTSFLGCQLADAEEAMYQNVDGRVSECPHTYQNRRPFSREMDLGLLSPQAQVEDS
Sequence of FGFR2 (P21802 22-821, species assumed): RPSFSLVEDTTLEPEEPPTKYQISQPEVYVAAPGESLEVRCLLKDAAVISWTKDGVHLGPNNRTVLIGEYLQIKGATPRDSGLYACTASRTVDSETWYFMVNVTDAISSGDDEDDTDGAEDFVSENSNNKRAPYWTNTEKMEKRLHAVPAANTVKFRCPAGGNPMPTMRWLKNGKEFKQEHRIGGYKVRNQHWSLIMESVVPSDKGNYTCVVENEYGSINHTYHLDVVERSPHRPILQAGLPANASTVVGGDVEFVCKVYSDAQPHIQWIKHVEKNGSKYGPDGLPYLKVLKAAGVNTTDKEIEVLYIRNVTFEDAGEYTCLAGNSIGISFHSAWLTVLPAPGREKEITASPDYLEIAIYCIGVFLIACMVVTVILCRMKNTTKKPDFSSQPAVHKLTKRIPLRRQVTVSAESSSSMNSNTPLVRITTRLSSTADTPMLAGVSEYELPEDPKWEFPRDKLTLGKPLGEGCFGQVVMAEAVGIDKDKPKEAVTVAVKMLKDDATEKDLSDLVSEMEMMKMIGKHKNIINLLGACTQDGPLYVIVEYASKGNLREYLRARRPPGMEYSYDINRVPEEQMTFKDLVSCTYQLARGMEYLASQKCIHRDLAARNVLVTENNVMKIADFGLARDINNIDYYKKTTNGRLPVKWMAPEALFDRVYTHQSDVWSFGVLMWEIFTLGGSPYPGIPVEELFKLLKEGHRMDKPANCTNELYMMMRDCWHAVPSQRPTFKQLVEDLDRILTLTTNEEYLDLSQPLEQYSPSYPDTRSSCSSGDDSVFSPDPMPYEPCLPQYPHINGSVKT

| inhibition at 0.1 µM (ABL1) | IC50 (FGFR2) | IC50 (JAK1) | inhibition at 0.1 µM (PDGFRβ) | IC50 (PDGFRβ) | IC50 (ALK) | inhibition at 0.1 µM (FLT3) | IC50 (IKK β) | inhibitory rate on ABL1 (ABL1) | inhibitory rate on PDGFR-β (PDGFRβ) | inhibitory rate on FLT3 (FLT3) | inhibition at 0.1 µM (PDGFRα) | SMILES | inhibitory activity on PDGFRβ (in words) (PDGFRβ) | IC50 [1] | IC50 [2] | IC50 [3] | IC50 (MG-63 osteosarcoma cells) | IC50 [4] | IC50 [5] | IC50 (U2OS osteosarcoma cells) |
| --- | --- | --- | --- | --- | --- | --- | --- | --- | --- | --- | --- | --- | --- | --- | --- | --- | --- | --- | --- | --- |
| 78.8% | > 1000 nM | 199 nM | 63.4% | 72 nM | 7 nM | 79.5% | > 1000 nM | – | – | – | – | COc1cc(N2CCN(C)CC2)ccc1Nc1ncc(C)c(Nc2ccc3cn[nH]c3c2)n1 [Compound 6e, N^4-(1H-indazol-6-yl)-N^2-(2-methoxy-4-(4-methylpiperazine-1-yl)phenyl)-5-methylpyrimidine-2,4-diamine] | – | – | – | – | – | – | – | – |
| – | 81 nM | 13 nM | – | 8.8 nM | 26 nM | – | 595 nM | 89.6% | 93.8% | 87.6% | – | Cc1cnc(Nc2ccc(N3CCN(C)CC3)cc2)nc1Nc1ccc2cn[nH]c2c1 [Compound 6g, N^4-(1H-indazol-6-yl)-5-methyl-N^2-(4-(4-methylpiperazine-1-yl)phenyl)pyrimidine-2,4-diamine] | significant inhibitory activities | – | – | – | – | – | – | – |
| – | 540 nM | 72 nM | – | 103 nM | 476 nM | – | > 1000 nM | 50.6% | 48.5% | 74.6% | – | Cc1cnc(Nc2ccc(N3CCC(F)(F)CC3)cc2)nc1Nc1ccc2cn[nH]c2c1 [Compound 6c] | – | – | – | – | – | – | – | – |
| 87.5% | > 1000 nM | 320 nM | 80.2% | 40 nM | 5.8 nM | 82.6% | > 1000 nM | – | – | – | – | CCN1CCN(c2ccc(Nc3ncc(C)c(Nc4ccc5cn[nH]c5c4)n3)c(OC)c2)CC1 [Compound 6h, N^2-(4-(4-ethylpiperazine-1-yl)-2-methoxyphenyl)-N^4-(1H-indazol-6-yl)-5-methylpyrimidine-2,4-diamine] | – | – | – | – | – | – | – | – |
| – | – | – | 76.7% | – | – | 80.6% | – | – | – | – | 96.9% | Cc1ccc(Nc2nccc(N(C)c3ccc4c(C)n(C)nc4c3)n2)cc1S(N)(=O)=O [Pazopanib, reference compound] | – | – | – | – | > 100000 nM | 8520 ± 868 nM | > 100000 nM | > 100000 nM |

The next lines start with the compound.

| SMILES | inhibition at 0.1 µM (ABL1) | IC50 (FGFR2) | IC50 (JAK1) | inhibition at 0.1 µM (PDGFRβ) | IC50 (PDGFRβ) | IC50 (ALK) | inhibition at 0.1 µM (FLT3) | IC50 (IKK β) | inhibitory rate on ABL1 (ABL1) | inhibitory rate on PDGFR-β (PDGFRβ) | inhibitory rate on FLT3 (FLT3) | inhibition at 0.1 µM (PDGFRα) | inhibitory activity on PDGFRβ (in words) (PDGFRβ) | IC50 [1] | IC50 [2] | IC50 [3] | IC50 (MG-63 osteosarcoma cells) | IC50 [4] | IC50 [5] | IC50 (U2OS osteosarcoma cells) |
| --- | --- | --- | --- | --- | --- | --- | --- | --- | --- | --- | --- | --- | --- | --- | --- | --- | --- | --- | --- | --- |
| Cc1cnc(Nc2ccc(N3CCS(=O)(=O)CC3)cc2)nc1Nc1ccc2cn[nH]c2c1 [Compound 6d, 4-(4-((4-((1H-indazol-6-yl)amino)-5-methylpyrimidine-2-yl)amino)phenyl)thiomorpholine 1,1-dioxide] | 59.6% | 117 nM | 99 nM | 70.3% | 70.3 nM and 39 nM | 186 nM | 78.4% | 619 nM | – | – | – | – | – | – | – | – | – | – | – | – |
| Cc1cnc(Nc2ccc(N3CCC(N4CCN(C)CC4)CC3)cc2)nc1Nc1ccc2cn[nH]c2c1 [Compound 6j, N^4-(1H-indazol-6-yl)-5-methyl-N^2-(4-(4-(4-methylpiperazine-1-y 1)piperidine-1-yl)phenyl)pyrimidine-2,4-diamine] | – | 89 nM | 14 nM | – | 12 nM | 23 nM | – | > 1000 nM | 87.6% | 85.4% | 91.0% | – | – | – | – | – | – | – | – | – |
| Cc1[nH]c(/C=C2\C(=O)Nc3ccc(F)cc32)c(C)c1C(=O)N[C@H]1CCN(C(=O)N(C)C)C1 [Vorolanib, reference compound] | – | – | – | – | – | – | – | – | – | – | – | – | – | 56200 ± 3230 nM | 34300 ± 885 nM | 18500 ± 10500 nM | – | – | – | – |
| CNC(=O)c1cc(Oc2ccc(NC(=O)Nc3ccc(Cl)c(C(F)(F)F)c3)cc2)ccn1 [Sorafenib, reference compound] | – | – | – | – | – | – | – | – | – | – | – | – | – | 23290 ± 143 nM | 6320 ± 730 nM | 9920 ± 598 nM | – | – | – | – |
| COc1cc(Nc2ncc(C)c(Nc3ccc4cn[nH]c4c3)n2)ccc1N1CCN(C)CC1 [Compound 6f, N^4-(1H-indazol-6-yl)-N^2-(3-methoxy-4-(4-methylpiperazine-1-yl)phenyl)-5-methylpyrimidine-2,4-diamine] | 98% | 61 nM | 31 nM | 97% | 2.6 nM | 11 nM | 97.8% | > 1000 nM | – | – | – | – | significant inhibitory activities | – | – | – | 841 ± 5 nM | 1360 ± 19 nM | 720 ± 25 nM | 756 ± 1 nM |
